{"source": "paper PMC8591608", "about": "“DNDI-6148: A Novel Benzoxaborole Preclinical Candidate for the Treatment of Visceral Leishmaniasis” (Journal of Medicinal Chemistry, 2021)", "key": {"[1]": {"test": "Liver microsome stability, hamster", "assay_type": "in vitro ADME", "conditions": "golden (Syrian), hamster liver microsomes", "description": "(§1) Tests were performed by WuXi AppTec, China. Test compounds (at 1 μM) or positive controls (testosterone, propafenone, and diclofenac) were incubated at 37 °C with liver microsomes from Balb/c mouse, golden (Syrian) hamster, Sprague-Dawley rat, Beagle dog, or human in the presence of a NADPH regenerating system and phosphate buffer (100 mM, pH 7.4) at 0.4 or 0.8 mg/mL microsomal protein. The samples were removed at time intervals from 0 to 60, 90, or 120 min and immediately mixed with cold methanol supplemented or not with acid (3% formic acid) and centrifuged prior to analysis by LC-MS/MS using tolbutamide or propranolol as internal standards."}, "L. infantum": {"tested_on": "L. infantum", "test": "Intramacrophage L. infantum assay", "assay_type": "cell-based", "conditions": "Leishmania infantum, geometric mean of at least two independent tests", "description": "L. infantum (MHOM/MA/67/ITMAP263) and L. donovani (MHOM/ET/67/L82) were maintained in the golden (Syrian) hamster (Mesocricetus auratus). Ex vivo amastigotes were collected from the spleen of an infected donor hamster using two centrifugation purification steps: 230g for 10 min, keeping the supernatant layer, and 4100g for 30 min, keeping the pellet. The spleen parasite burden was assessed using the Stauber technique.[25] For in vitro assays, the inoculum was prepared in RPMI-1640 medium, supplemented with 200 mM L-glutamine, 16.5 mM NaHCO3, and 5% inactivated fetal calf serum. For the in vivo model, an infection inoculum containing 2 × 10^7 amastigotes/100 μL was prepared in phosphate-buffered saline (PBS).\nThe assay was performed in sterile 96-well microtiter plates, each well containing 10 μL of the compound dilution and 190 μL of the PMM/amastigote inoculum (3 × 10^4 cells/4.5 × 10^5 parasites per well). Parasite multiplication was compared to untreated infected controls (100% growth) and uninfected controls (0% growth). After five-day incubation, total parasite burdens were microscopically assessed after staining the cells with a 10% Giemsa solution. The results were expressed as a percentage reduction in parasite burden compared to untreated control wells. EC50 values were determined using an extended dose range (2-fold compound dilutions, 8-point concentration curve). Miltefosine was used as the reference drug.[26] For selected compounds, this assay format was also run using the L. donovani inoculum."}, "PMM cytotoxicity assay": {"test": "PMM cytotoxicity assay", "assay_type": "cell-based", "conditions": "mouse, primary peritoneal mouse macrophages (PMM), geometric mean of at least two independent tests", "description": "(§2) Primary peritoneal mouse macrophages (PMM) were collected two days after peritoneal stimulation with a 2% potato starch suspension. MRC5SV2 cells (diploid human embryonic lung fibroblasts) were cultured in minimal essential medium (MEM) containing Earle’s salts, supplemented with L-glutamine, NaHCO3, and 5% inactivated fetal calf serum. All cultures and assays were conducted at 37 °C under an atmosphere of 5% CO2.\n(§3) Assays were performed in sterile 96-well microtiter plates, each well containing 10 μL of the compound dilution and 190 μL of MRC5SV2 or PMM inoculum (3 × 10^4 cells/mL). Cell growth was compared to untreated controls (100% growth) and assay-media controls (0% growth). After three-day incubation, cell viability was assessed fluorometrically by adding resazurin (50 μL/well of a stock solution in phosphate buffer (50 μg/mL)), incubating for 4 h and measuring fluorescence (λex 550 nm, λem 590 nm). The results were expressed as a percentage reduction in cell growth compared to untreated control wells. […] Tamoxifen was included as the reference drug."}, "MRC5 cytotoxicity assay": {"test": "MRC5 cytotoxicity assay", "assay_type": "cell-based", "conditions": "human, MRC5SV2 cells (human embryonic lung fibroblasts), geometric mean of at least two independent tests", "description": "as §2, §3"}, "[2]": {"test": "Liver microsome stability, human", "assay_type": "in vitro ADME", "conditions": "human liver microsomes", "description": "as §1"}, "[3]": {"conditions": "pH 7.4, Table 4, read-out: HamLM Clint"}, "[4]": {"conditions": "Table 4, read-out: intramacrophage L. infantum EC50"}, "[5]": {"conditions": "pH 7.4, Table 4, read-out: HLM Clint"}, "[6]": {"conditions": "pH 7.4, Table 5, read-out: HamLM Clint"}, "[7]": {"conditions": "Table 5, read-out: intramacrophage L. infantum amastigote EC50"}, "[8]": {"conditions": "pH 7.4, Table 5, read-out: HLM Clint"}}, "note": "Read-outs that look alike come from different tables or passages of the source."}
{"smiles": "COc1cccc(-n2ncc(C(=O)Nc3ccc4c(c3)B(O)OC4)c2C)n1", "note": "[Compound 17, N-(1-Hydroxy-1,3-dihydrobenzo[c][1,2]oxaborol-6-yl)-1-(6-methoxypyridin-2-yl)-5-methyl-1H-pyrazole-4-carboxamide]", "values": [{"measurement": "microsomal CLint at 2 h, 1 µM", "setting": "[1]; [3]", "value": 40, "unit": "µL/min/mg"}, {"measurement": "EC50", "setting": "L. infantum; [4]", "value": 1.4, "unit": "µM"}, {"measurement": "CC50 at 3 days", "setting": "PMM cytotoxicity assay; Table 4", "value": "> 64", "unit": "µM"}, {"measurement": "CC50 at 72 h", "setting": "MRC5 cytotoxicity assay; Table 4", "value": 40, "unit": "µM"}, {"measurement": "microsomal CLint at 1 μM", "setting": "[2]; [5]", "value": "< 11.9", "unit": "µL/min/mg"}]}
{"smiles": "Cc1cccc(-n2ncc(C(=O)Nc3ccc4c(c3)B(O)OC4)c2C)n1", "note": "[Compound 18, N-(1-Hydroxy-1,3-dihydrobenzo[c][1,2]oxaborol-6-yl)-5-methyl-1-(6-methylpyridin-2-yl)-1H-pyrazole-4-carboxamide]", "values": [{"measurement": "microsomal CLint at 2 h, 1 µM", "setting": "[1]; [3]", "value": 44, "unit": "µL/min/mg"}, {"measurement": "EC50", "setting": "L. infantum; [4]", "value": 1.6, "unit": "µM"}, {"measurement": "CC50 at 3 days", "setting": "PMM cytotoxicity assay; Table 4", "value": "> 64", "unit": "µM"}, {"measurement": "CC50 at 72 h", "setting": "MRC5 cytotoxicity assay; Table 4", "value": 41, "unit": "µM"}, {"measurement": "microsomal CLint at 1 μM", "setting": "[2]; [5]", "value": "< 11.9", "unit": "µL/min/mg"}]}
{"smiles": "O=C(Nc1ccc2c(c1)B(O)OC2)c1cc(-c2ccccn2)n[nH]1", "note": "[Compound 19, N-(1-Hydroxy-1,3-dihydrobenzo[c][1,2]oxaborol-6-yl)-3-(pyridin-2-yl)-1H-pyrazole-5-carboxamide]", "values": [{"measurement": "microsomal CLint at 2 h, 1 µM", "setting": "[1]; [3]", "value": 253, "unit": "µL/min/mg"}, {"measurement": "EC50", "setting": "L. infantum; [4]", "value": 0.5, "unit": "µM"}, {"measurement": "CC50 at 72 h", "setting": "PMM cytotoxicity assay; Table 4", "value": 32, "unit": "µM"}, {"measurement": "CC50 at 72 h", "setting": "MRC5 cytotoxicity assay; Table 4", "value": 4, "unit": "µM"}, {"measurement": "microsomal CLint at 1 μM", "setting": "[2]; [5]", "value": "< 11.9", "unit": "µL/min/mg"}]}
{"smiles": "Cn1nc(-c2ccccn2)cc1C(=O)Nc1ccc2c(c1)B(O)OC2", "note": "[Compound 20, N-(1-Hydroxy-1,3-dihydrobenzo[c][1,2]oxaborol-6-yl)-1-methyl-3-(pyridin-2-yl)-1H-pyrazole-5-carboxamide]", "values": [{"measurement": "microsomal CLint at 2 h, 1 µM", "setting": "[1]; [3]", "value": 121, "unit": "µL/min/mg"}, {"measurement": "EC50", "setting": "L. infantum; [4]", "value": 34, "unit": "µM"}, {"measurement": "CC50 at 3 days", "setting": "PMM cytotoxicity assay; Table 4", "value": "> 64", "unit": "µM"}, {"measurement": "CC50 at 3 days", "setting": "MRC5 cytotoxicity assay; Table 4", "value": "> 64", "unit": "µM"}, {"measurement": "microsomal CLint at 2 h, 1 µM", "setting": "[2]; [5]", "value": 18, "unit": "µL/min/mg"}]}
{"smiles": "Cn1nc(C(=O)Nc2ccc3c(c2)B(O)OC3)cc1-c1ccccn1", "note": "[Compound 21, N-(1-Hydroxy-1,3-dihydrobenzo[c][1,2]oxaborol-6-yl)-1-methyl-5-(pyridin-2-yl)-1H-pyrazole-3-carboxamide]", "values": [{"measurement": "microsomal CLint at 2 h, 1 µM", "setting": "[1]; [3]", "value": 106, "unit": "µL/min/mg"}, {"measurement": "EC50", "setting": "L. infantum; [4]", "value": 1.8, "unit": "µM"}, {"measurement": "CC50 at 3 days", "setting": "PMM cytotoxicity assay; Table 4", "value": "> 64", "unit": "µM"}, {"measurement": "CC50 at 72 h", "setting": "MRC5 cytotoxicity assay; Table 4", "value": 54, "unit": "µM"}, {"measurement": "microsomal CLint at 2 h, 1 µM", "setting": "[2]; [5]", "value": 14, "unit": "µL/min/mg"}]}
{"smiles": "O=C(Nc1ccc2c(c1)B(O)OC2)c1cn(-c2ccccn2)nn1", "note": "[Compound 22, N-(1-Hydroxy-1,3-dihydrobenzo[c][1,2]oxaborol-6-yl)-1-(pyridin-2-yl)-1H-1,2,3-triazole-4-carboxamide]", "values": [{"measurement": "microsomal CLint at 2 h, 1 µM", "setting": "[1]; [6]", "value": 18, "unit": "µL/min/mg"}, {"measurement": "EC50", "setting": "L. infantum; [7]", "value": 1.7, "unit": "µM"}, {"measurement": "CC50 at 3 days", "setting": "PMM cytotoxicity assay; Table 5", "value": "> 64", "unit": "µM"}, {"measurement": "CC50 at 72 h", "setting": "MRC5 cytotoxicity assay; Table 5", "value": 44.8, "unit": "µM"}, {"measurement": "microsomal CLint at 1 μM", "setting": "[2]; [8]", "value": "< 11.9", "unit": "µL/min/mg"}]}
{"smiles": "Cc1c(C(=O)Nc2ccc3c(c2)B(O)OC3)nnn1-c1ccccc1", "note": "[Compound 24, N-(1-Hydroxy-1,3-dihydrobenzo[c][1,2]oxaborol-6-yl)-5-methyl-1-phenyl-1H-1,2,3-triazole-4-carboxamide]", "values": [{"measurement": "EC50", "setting": "L. infantum; [7]", "value": 37, "unit": "µM"}, {"measurement": "CC50 at 3 days", "setting": "PMM cytotoxicity assay; Table 5", "value": "> 64", "unit": "µM"}, {"measurement": "CC50 at 3 days", "setting": "MRC5 cytotoxicity assay; Table 5", "value": "> 64", "unit": "µM"}, {"measurement": "microsomal CLint at 1 μM", "setting": "[2]; [8]", "value": "< 11.9", "unit": "µL/min/mg"}]}
{"smiles": "COc1cccc(-n2nnc(C(=O)Nc3ccc4c(c3)B(O)OC4)c2C)n1", "note": "[Compound 25, N-(1-Hydroxy-1,3-dihydrobenzo[c][1,2]oxaborol-6-yl)-1-(6-methoxypyridin-2-yl)-5-methyl-1H-1,2,3-triazole-4-carboxamide]", "values": [{"measurement": "microsomal CLint at 2 h, 1 µM", "setting": "[1]; [6]", "value": 40, "unit": "µL/min/mg"}, {"measurement": "EC50", "setting": "L. infantum; [7]", "value": 0.8, "unit": "µM"}, {"measurement": "CC50 at 72 h", "setting": "PMM cytotoxicity assay; Table 5", "value": 32, "unit": "µM"}, {"measurement": "CC50 at 3 days", "setting": "MRC5 cytotoxicity assay; Table 5", "value": "> 64", "unit": "µM"}, {"measurement": "microsomal CLint at 2 h, 1 µM", "setting": "[2]; [8]", "value": 23, "unit": "µL/min/mg"}]}
{"smiles": "Cc1cccc(-n2nnc(C(=O)Nc3ccc4c(c3)B(O)OC4)c2C)n1", "note": "[Compound 26, N-(1-Hydroxy-1,3-dihydrobenzo[c][1,2]oxaborol-6-yl)-5-methyl-1-(6-methylpyridin-2-yl)-1H-1,2,3-triazole-4-carboxamide]", "values": [{"measurement": "EC50", "setting": "L. infantum; [7]", "value": 6.4, "unit": "µM"}, {"measurement": "CC50 at 3 days", "setting": "PMM cytotoxicity assay; Table 5", "value": "> 64", "unit": "µM"}, {"measurement": "CC50 at 3 days", "setting": "MRC5 cytotoxicity assay; Table 5", "value": "> 64", "unit": "µM"}]}
{"smiles": "Cc1c(C(=O)Nc2ccc3c(c2)B(O)OC3)nnn1-c1cccnc1", "note": "[Compound 27, N-(1-Hydroxy-1,3-dihydrobenzo[c][1,2]oxaborol-6-yl)-5-methyl-1-(pyridin-3-yl)-1H-1,2,3-triazole-4-carboxamide]", "values": [{"measurement": "EC50", "setting": "L. infantum; [7]", "value": 38, "unit": "µM"}, {"measurement": "CC50 at 3 days", "setting": "PMM cytotoxicity assay; Table 5", "value": "> 64", "unit": "µM"}, {"measurement": "CC50 at 3 days", "setting": "MRC5 cytotoxicity assay; Table 5", "value": "> 64", "unit": "µM"}]}
